“Also recorded” adds a separate entry of the source. Where two headings read alike, the source gives them in different places.
Experiments:
MOLM13 cells [1] = test: Differentiation in MOLM13 cells; type: cell-based, human
KASUMI = test: Cell viability, antiproliferation, apoptosis, differentiation in KASUMI cells; type: cell-based
IKZF2 [2] = target: T1, IKZF2 (Homo sapiens, UniProt Q9UKS7); test: Western blot, IKZF2 degradation in MOLM13 cells; type: cell-based; design: endogenous in cells; host or cells: MOLM13
Experimental: (§1) To determine the selectivity of DEG-7 and DEG-35, blotting was done for other known IMiD neo-substrates (FIG. 1A). DEG-35 degraded casein kinase 1α (CK1α), a known substrate of lenalidomide, as well as the translation termination factor GSPT1, a substrate of the IMiD CC-885, at 25 μM concentrations. To investigate whether DEG-35 could degrade IKZF2 at lower concentrations, MOLM13 cells were treated with a concentration gradient. At the lowest concentration tested (5 nM), IKZF2 and CK1a degraded, while GSPT1 levels were unperturbed.
Target sequence in this assay (Q9UKS7 whole entry): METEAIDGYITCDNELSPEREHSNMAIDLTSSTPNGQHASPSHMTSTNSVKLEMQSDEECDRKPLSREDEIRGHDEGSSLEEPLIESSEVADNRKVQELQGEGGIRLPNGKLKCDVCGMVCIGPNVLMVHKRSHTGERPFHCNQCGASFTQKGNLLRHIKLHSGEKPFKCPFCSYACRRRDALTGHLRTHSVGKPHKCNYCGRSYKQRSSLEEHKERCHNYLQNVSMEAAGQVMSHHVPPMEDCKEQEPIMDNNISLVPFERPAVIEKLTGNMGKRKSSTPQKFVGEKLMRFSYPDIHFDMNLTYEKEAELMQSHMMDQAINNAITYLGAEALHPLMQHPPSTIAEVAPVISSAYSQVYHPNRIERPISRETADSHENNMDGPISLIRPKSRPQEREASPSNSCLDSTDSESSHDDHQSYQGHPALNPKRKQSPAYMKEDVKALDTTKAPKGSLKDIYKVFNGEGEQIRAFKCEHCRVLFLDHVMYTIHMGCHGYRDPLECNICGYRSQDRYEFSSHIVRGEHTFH
Target sequence in this assay (Q96SW2 whole entry, further chain): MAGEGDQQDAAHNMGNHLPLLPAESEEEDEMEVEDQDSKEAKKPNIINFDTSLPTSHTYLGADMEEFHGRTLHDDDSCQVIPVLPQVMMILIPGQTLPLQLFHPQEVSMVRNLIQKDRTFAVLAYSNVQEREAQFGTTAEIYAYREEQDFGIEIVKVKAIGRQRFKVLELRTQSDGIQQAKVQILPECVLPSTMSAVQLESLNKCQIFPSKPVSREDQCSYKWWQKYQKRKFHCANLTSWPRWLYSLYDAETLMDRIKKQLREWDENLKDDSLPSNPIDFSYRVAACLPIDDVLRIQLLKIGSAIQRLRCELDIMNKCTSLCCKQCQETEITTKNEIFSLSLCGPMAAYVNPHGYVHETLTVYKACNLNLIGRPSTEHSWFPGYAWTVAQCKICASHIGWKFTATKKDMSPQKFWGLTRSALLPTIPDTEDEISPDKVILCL
Target sequence in this assay (Q16531 whole entry partner): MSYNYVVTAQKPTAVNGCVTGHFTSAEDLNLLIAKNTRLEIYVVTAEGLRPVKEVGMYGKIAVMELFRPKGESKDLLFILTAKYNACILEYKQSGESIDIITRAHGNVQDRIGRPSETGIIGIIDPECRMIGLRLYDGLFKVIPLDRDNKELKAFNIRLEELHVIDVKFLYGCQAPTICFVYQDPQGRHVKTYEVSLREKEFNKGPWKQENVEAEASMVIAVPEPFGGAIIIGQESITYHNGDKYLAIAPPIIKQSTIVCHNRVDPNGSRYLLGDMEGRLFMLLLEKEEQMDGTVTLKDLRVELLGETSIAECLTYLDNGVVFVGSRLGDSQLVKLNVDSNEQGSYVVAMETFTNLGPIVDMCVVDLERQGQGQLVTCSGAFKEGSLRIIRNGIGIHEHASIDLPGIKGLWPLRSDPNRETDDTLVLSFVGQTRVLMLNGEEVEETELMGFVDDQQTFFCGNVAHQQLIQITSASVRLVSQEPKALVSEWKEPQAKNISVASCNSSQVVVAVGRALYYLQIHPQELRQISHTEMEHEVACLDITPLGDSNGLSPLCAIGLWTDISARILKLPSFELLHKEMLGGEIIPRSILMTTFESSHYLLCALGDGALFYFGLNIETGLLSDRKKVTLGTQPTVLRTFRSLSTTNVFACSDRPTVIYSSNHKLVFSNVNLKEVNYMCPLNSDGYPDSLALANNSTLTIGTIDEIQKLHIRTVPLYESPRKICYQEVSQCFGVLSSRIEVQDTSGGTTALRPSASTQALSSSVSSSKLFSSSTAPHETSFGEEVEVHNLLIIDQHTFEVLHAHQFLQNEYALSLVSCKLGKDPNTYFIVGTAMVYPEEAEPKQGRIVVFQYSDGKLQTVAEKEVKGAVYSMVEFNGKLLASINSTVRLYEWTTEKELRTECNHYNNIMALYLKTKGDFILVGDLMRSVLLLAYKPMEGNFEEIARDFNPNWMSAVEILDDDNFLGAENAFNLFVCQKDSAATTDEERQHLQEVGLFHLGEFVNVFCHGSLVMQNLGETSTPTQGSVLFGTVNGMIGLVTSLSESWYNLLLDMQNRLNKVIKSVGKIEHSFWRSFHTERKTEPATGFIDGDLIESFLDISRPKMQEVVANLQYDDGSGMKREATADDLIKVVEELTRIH

[3] = system: over 800 cancer cell lines; test: PRISM screen against over 800 cancer cell lines; type: cell-based; settings: MOLM13 cell line
Description: DEG-7 and DEG-35 were submitted to the Broad Institute's PRISM (Profiling Relative Inhibition Simultaneously in Mixtures) screen to be evaluated against over 800 cancer cell lines. The initial screen identified cancer cell lines that were responsive to DEG-7 and DEG-35 treatment. […] Several diffuse large B-cell lymphoma (DLBCL), acute myeloid leukemia (AML), and T-cell acute lymphoblastic leukemia (T-ALL) cell lines responded to DEG-35 in a dose-dependent manner. Of the top ten cell lines that responded to DEG-35 treatment, three were DLBCL cell lines, one was an AML cell line (MOLM13), and one was a T-ALL cell line.

MOLM13 cells [4] = test: Apoptosis markers in MOLM13 cells; type: cell-based, human
MOLM13 cells [5] = test: MTT cell viability assay in MOLM13 cells; type: cell-based, human
Experimental: The effect of DEG-7 and DEG-35 were evaluated on cell viability in MOLM13 cells.

NOMO1 = test: Cell viability, antiproliferation, apoptosis, differentiation in NOMO1 cells; type: cell-based
IKZF1 = target: T2, IKZF1 (Homo sapiens, UniProt Q13422); test: Western blot, IKZF1 levels in MOLM13 cells; type: cell-based
T2 construct: endogenous in cells; host or cells: MOLM13
Description: DEG-37 is also a suitable lead compound for IKZF2 targeted degradation (FIG. 4).

GSPT1 = GSPT1 (Homo sapiens, UniProt P15170+Q96SW2); test: Western blot, GSPT1 levels in MOLM13 cells; type: cell-based; design: endogenous in cells; host or cells: MOLM13
Experimental: as §1

IKZF2 [6] = target: T1, IKZF2; settings: background statement; cited from earlier work
Target sequence in this assay (Q9UKS7 whole entry): as the sequence (Q9UKS7 whole entry) above
Target sequence in this assay (Q96SW2 whole entry, further chain): as the sequence (Q96SW2 whole entry, further chain) above

T2 sequence (Q96SW2 whole entry partner): as the sequence (Q96SW2 whole entry, further chain) above
T2 sequence (Q16531 whole entry partner): as the sequence (Q16531 whole entry partner) above
T2 sequence (Q13422 whole entry): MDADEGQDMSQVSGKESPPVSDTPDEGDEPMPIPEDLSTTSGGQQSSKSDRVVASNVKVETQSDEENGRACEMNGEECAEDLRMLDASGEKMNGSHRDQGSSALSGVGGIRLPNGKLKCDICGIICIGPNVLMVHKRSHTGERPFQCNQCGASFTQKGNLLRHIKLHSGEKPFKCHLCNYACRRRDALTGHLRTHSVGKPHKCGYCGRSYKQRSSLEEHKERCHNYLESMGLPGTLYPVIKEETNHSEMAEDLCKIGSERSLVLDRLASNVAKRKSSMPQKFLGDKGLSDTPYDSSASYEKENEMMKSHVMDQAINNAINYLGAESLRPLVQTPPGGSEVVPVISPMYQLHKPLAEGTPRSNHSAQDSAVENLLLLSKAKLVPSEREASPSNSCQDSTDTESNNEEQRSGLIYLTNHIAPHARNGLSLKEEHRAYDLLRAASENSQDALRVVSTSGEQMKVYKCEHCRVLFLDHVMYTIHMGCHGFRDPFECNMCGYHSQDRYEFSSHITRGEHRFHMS
Chain of GSPT1 (P15170 whole entry): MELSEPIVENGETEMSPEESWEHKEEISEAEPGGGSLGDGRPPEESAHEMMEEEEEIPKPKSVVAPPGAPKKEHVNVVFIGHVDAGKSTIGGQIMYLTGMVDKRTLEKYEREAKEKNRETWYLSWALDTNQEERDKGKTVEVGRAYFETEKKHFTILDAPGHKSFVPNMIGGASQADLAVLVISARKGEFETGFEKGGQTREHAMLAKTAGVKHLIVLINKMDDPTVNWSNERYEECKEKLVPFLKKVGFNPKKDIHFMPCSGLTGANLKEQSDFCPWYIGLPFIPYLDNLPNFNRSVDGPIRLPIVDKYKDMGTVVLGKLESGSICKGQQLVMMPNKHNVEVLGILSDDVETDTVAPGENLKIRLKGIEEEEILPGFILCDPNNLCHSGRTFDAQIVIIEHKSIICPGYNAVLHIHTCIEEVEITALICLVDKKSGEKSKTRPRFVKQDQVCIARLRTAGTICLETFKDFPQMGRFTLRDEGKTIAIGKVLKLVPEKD
Chain of GSPT1 (Q96SW2 whole entry): as the sequence (Q96SW2 whole entry, further chain) above
Chain of GSPT1 (Q16531 whole entry partner): as the sequence (Q16531 whole entry partner) above

COc1ccc2cc(CNc3ccc4c(c3)CN(C3CCC(=O)NC3=O)C4=O)ccc2c1 (stereo not drawn) [DEG-7, 3-(5-(((6-methoxynaphthalen-2-yl)methyl)amino)-1-oxoisoindolin-2-yl)piperidine-2,6-dione]
induction of differentiation (MOLM13 cells [1]): induced differentiation; also recorded: more efficient at inducing differentiation than DEG-35 | effect on cell viability, antiproliferation, apoptosis, or differentiation (KASUMI): no observed effect | IKZF2 degradation (IKZF2 [2]; analog screening, concentration not given): robust IKZF2 degradation; also recorded: potent degraders of IKZF2 | sensitivity of MOLM13 in PRISM screen [3]: sensitive | induction of apoptosis markers (MOLM13 cells [4]): induced apoptosis markers | IC50 (MOLM13 cells [5]; MOLM13 cells): 4.5 µM | effect on cell viability, antiproliferation, apoptosis, or differentiation (NOMO1): no observed effect

O=C1CCC(N2Cc3cc(NCc4ccc5oc6ccccc6c5c4)ccc3C2=O)C(=O)N1 (stereo not drawn) [DEG-37, 3-(5-((dibenzo[b,d]furan-2-ylmethyl)amino)-1-oxoisoindolin-2-yl)piperidine-2,6-dione]
IKZF2 degradation (IKZF2 [2]; 25 μM): selectively degrade IKZF2; also recorded: degrades IKZF2 | effect on IKZF1 levels (IKZF1): minimally effect | effect on GSPT1 levels (GSPT1): minimally effect | antiproliferative activity (in words) (MOLM13 cells [5]; MOLM13 / AML cells): milder antiproliferative effects; also recorded: possesses antiproliferative effects

Nc1cccc2c1CN(C1CCC(=O)NC1=O)C2=O (stereo not drawn) [lenalidomide]
IKZF2 degradation (IKZF2 [6]): not degraders of IKZF2
